Experimental data from PubChem BioAssay AID1963597 (National Center for Advancing Translational Sciences (NCATS), 2024).

These compounds were tested on human liver microsomes, metabolic stability half-life (assay: NCATS Human Liver Microsomal (HLM) Stability Profiling). Conditions: higher = more stable; screened at 1 µM (by protocol).
Description: Assay submitter (PI): Dr. Pranav Shah
NIH Center for Advancing Translational Sciences
Pharmacokinetic issues were the leading cause of drug attrition, accounting for approximately 40% of all cases before the turn of the century. To this end, several high-throughput in vitro assays like microsomal stability have been developed to evaluate the pharmacokinetic profiles of compounds in early stages of drug discovery. At NCATS, a single-point rat liver microsomal (RLM) stability assay is used as a Tier I assay, while human liver microsomal (HLM) stability is employed as a Tier II assay. While it is beneficial to have compound libraries screened for HLM stability, the increasing magnitude of hits routinely generated, and the time- and re-source-intensive nature of the assay makes it important to find alternatives. One strategy is to rely on in silico models that have been developed using data generated from these assays. Herein, we describe the development of an HLM stability prediction model using our in-house dataset of ~7,000 compounds, employing both traditional and advanced machine learning methods. Additionally, the strong correlation between our RLM and HLM data was further reinforced by the fact that our HLM model performance improved after adding RLM stability predictions as an input descriptor. […] The best model along with a subset of our dataset has been made publicly accessible on the NCATS@ADME website for the benefit of the greater drug discovery community.
Microsomal Stability Assay
The substrate depletion method, also called the in vitro t1/2 method was used to analyze test compounds. Incubation and liquid handling were carried out using a previously described method (Shah et al., 2016). Briefly, each reaction mixture (110 µL) consisted of a test article (1 µM), human liver microsomes (0.5 mg/mL), and NADPH regenerating system in phosphate buffer at pH 7.4. Samples were incubated in 384-well plates at 37 degrees C for 0, 5, 10, 15, 30 and 60 min. At each time point, 10 µL of the incubation mixture was aspirated into another 384-well plate which contained cold acetonitrile (ACN) with internal standard (albendazole). All plates were centrifuged at 3000 rpm for 20 min at 4 degrees C, and the supernatants were transferred to a 384-well injection plate. Sample quantification and analysis was performed using a previously described method (Shah et al., 2016, Siramshetty et al., 2020).
1: Shah, P. et al. An Automated High-Throughput Metabolic Stability Assay Using an Integrated High-Resolution Accurate Mass Method and Automated Data Analysis Software. Drug Metab Dispos 44, 1653-1661 (2016).
2: Siramshetty et al. Retrospective assessment of rat liver microsomal stability at NCATS: data and QSAR models. Sci Rep 26;10(1):20713 (2020).

SMILES	half-life [min]
CCOc1cc(=O)n2c(c1C(=O)Nc1ccc(S(N)(=O)=O)cc1)CCCC2	> 120
COc1ccc(-c2cn3cccnc3n2)cc1NC(=O)c1cc(C)cc(C)c1	20.7
COc1ccc(CCNc2ncnc3c2c(-c2ccccc2)cn3-c2cccc(Cl)c2)cc1OC	3.59
O=C(O)COC(=O)Cc1ccccc1Nc1c(Cl)cccc1Cl	2.83
CN(C(=O)CN(CCO)CC(=O)N(C)C(C)(C)Cc1ccccc1)C(C)(C)Cc1ccccc1	0.58
CC(C)(C)c1ccc(S(=O)(=O)c2cnc(SCC(=O)Nc3ccc(F)c(Cl)c3)[nH]c2=O)cc1	73.1
O=C(O)Cc1ccc2oc(-c3ccc(NC(=O)/C=C/c4ccc(Br)cc4)c(F)c3)nc2c1	> 120
CCC1CCCCN1CC(=O)N1CCCc2c1c(=O)oc1ccc(OCc3ccccc3)cc21 (stereo unspecified)	0.54
Cc1cccc(C)c1NC(=O)[C@H]1CCCCN1C	> 120
CN1CCN(C2CCC(n3cc(-c4ccc(Oc5ccccc5)cc4)c4c(N)ncnc43)CC2)CC1 (stereo unspecified)	58.6
COCC(=O)NCC=Cc1ccc2ncnc(Nc3ccc(Oc4ccc(C)nc4)c(C)c3)c2c1	22.7
CC(C)C[C@H]1C(=O)N2CCC[C@H]2[C@]2(O)O[C@](NC(=O)[C@@H]3C=C4c5cccc6[nH]c(Br)c(c56)CC4N(C)C3)(C(C)C)C(=O)N12 (stereo partly specified)	0.89
CCOC(=O)[C@H](CCc1ccccc1)N[C@H]1CCc2ccccc2N(CC(=O)O)C1=O	18.6
CCOC(=O)Cn1cccc1-c1nc(-c2ccc(OC)cc2)c(-c2ccc(OC)cc2)s1	0.96
COC(=O)c1ccc([C@H]2c3[nH]c4ccccc4c3C[C@H](C(=O)OC)N2C(=O)CCl)cc1	8.55
Cc1nc(N)ncc1-c1nc(N2CCOCC2)c2sc(C(C)(C)O)cc2n1	> 120
Cc1coc2c1C(=O)C(=O)c1c-2ccc2c1CCCC2(C)C	5.39
CC1=C(CC(=O)O)c2cc(F)ccc2/C1=C\c1ccc(S(C)=O)cc1 (stereo unspecified)	> 120
C[C@@H]1CCC[C@H](C)N1CCCC(O)(c1ccccc1)c1ccccn1 (stereo partly specified)	> 120
CCN[C@H]1C[C@H](C)S(=O)(=O)C2SC(S(N)(=O)=O)C=C21 (stereo partly specified)	105
C=CCOC1=C(OCC(O)CNC(C)C)CCCC1 (stereo unspecified)	> 120

SMILES	half-life [min]
COc1cccc(CCc2ccccc2OCC(CN(C)C)OC(=O)CCC(=O)O)c1 (stereo unspecified)	38.8
C[C@H](N)C(=O)N1CCC(n2nccc2NC(=O)Nc2ccccc2Cl)CC1	> 120
Cn1c(=O)c2c(ncn2CCO)n(C)c1=O	> 120
O=C1CN2CCOC2(c2ccccc2Cl)c2cc(Cl)ccc2N1 (stereo unspecified)	4.56
N#Cc1cn([C@@H]2O[C@H](CO)[C@H](O)[C@@H]2O)c2ncnc(N)c12	> 120
O=C(Nc1ccccc1Br)NC1CCN(c2ccc(C(F)(F)F)cn2)C1 (stereo unspecified)	120
COc1nccc(-c2c(-c3ccc(F)cc3)ncn2C2CCNCC2)n1	> 120
Cc1ccccc1-n1c(SCc2ccc(Cl)cc2)nc2[nH]ncc2c1=O	53.2
COc1ccc(CCO[C@@H]2CCCC[C@H]2N2CC[C@@H](O)C2)cc1OC	> 120
CCCOc1ccc(-c2nc(OC)c3ccccc3n2)cc1	14.7
COc1cc2ncnc(Nc3ccc(F)c(Cl)c3)c2cc1NC(=O)C=CCN1CCCCC1	> 120
Cn1c(=O)c(F)c(Nc2ccc(I)cc2F)c2c(=O)n(CC(O)CO)cnc21 (stereo unspecified)	> 120
COc1ccc2c3c1O[C@H]1[C@@H](O)C=C[C@H]4[C@@H](C2)N(C)CC[C@@]341	112
COc1ccc2c(c1)CCCC2=O	17.6
Cc1cc(OCc2nnc(SC3CCCC3)n2-c2cccnc2)ccc1-c1ccc(S(C)(=O)=O)cc1	1.66
O=C(NCc1ccc(OC(F)(F)F)cc1)C1c2c(F)cccc2C(=O)N1CCc1ccccn1 (stereo unspecified)	6.61
Cc1cc2c(F)c(Oc3ncnn4cc(OCC(C)O)c(C)c34)ccc2[nH]1 (stereo unspecified)	> 120
CC(=O)Nc1ccc(OC[C@@H](O)CNC(C)C)cc1	> 120
O=C(O)c1cccc(-c2noc(-c3ccccc3F)n2)c1	> 120
O=C(Nc1cccc(C(F)(F)F)c1)Nc1cc(S(=O)(=O)NC2CC2)ccc1-c1ccsc1	4.46
